Converted amounts (≈) assume the structure as drawn. “And” between values parts separate entries of the source, which are not always exact repeats. Equal entries are not always repeated.

This is an account of results in ChEMBL document CHEMBL3137440, “DNDi T. cruzi fenarimol series dataset from which preclinical candidate EPL-BS0967 was identified (see also related datasets: CHEMBL3137386 and CHEMBL2448688)”.

Data set [1] concerns Trypanosoma cruzi. Nature of the data set: (§1) DNDI: Chagas in Vitro. It counts as functional, organism-based, Tulahuen C4 (LacZ).
In data set [2] the test system is Trypanosoma cruzi. The data set is described as §1. In kind it is functional, Tulahuen C4 (LacZ).
Data set [3] can be described thus: (§2) DNDI: Cytotoxicity against L-6 rat myoblasts from skeletal musclE. The settings on record: L6 rat skeletal muscle myoblasts, IC50.
Data set [4] concerns Trypanosoma brucei rhodesiense. Nature of the data set: DNDI: HAT in Vitro. It counts as functional, organism-based. Conditions: ATCC 30027.
The nature of data set [5]: (§3) DNDI: Lipophilicity (gLogD) at pH 3. Conditions: buffer.
Data set [6] can be described thus: DNDI: Lipophilicity (gLogD) at pH 7.4. Conditions: buffer.
Data set [7] is described as follows: DNDI: Solubility in 0.01M HCl at pH 2 determined by nephelometry.
Data set [8] in a line: (§4) DNDI: Solubility in phosphate buffer at pH 6.5 determined by nephelometry.
Data set [9] in a line: in vitro. Conditions: human, microsomes.
Data set [10] in a line: in vitro. Conditions: human, microsomes. This is another data set of the same source.
Data set [11] can be described thus: as §3. Conditions: buffer. In kind it is physicochemical.
Data set [12] in a line: as §4. In kind it is physicochemical.
Data set [13] can be described thus: in vitro. The settings on record: human, microsomes. The source holds these as a separate data set.
Another data set has as its system L6. The data set is described as §2.
A short description of data set [14]: DNDI: Metabolism. Conditions: rat, microsomes; for hepatic extraction ratio: read-out: EH. It counts as ADME, Microsome.
Data set [15] addresses T1, Cytochrome P450 3A4 (Homo sapiens, UniProt P08684).
The target in data set [16] is T1, Cytochrome P450 3A4. This is another data set of the same source.
Data set [17] concerns the target T1, Cytochrome P450 3A4. Nature of the data set: DNDI: CYP Inhibition. In kind it is ADME.
The subject of another data set is Leishmania donovani. Nature of the data set: DNDI: Inhibition of formation of Leishmania donovani. It counts as functional, MHOM/ET/67/L82. Also on record: concentration or dose not given beside the values.
The conditions of data set [18]: human, microsomes.
The conditions of data set [19]: human, microsomes. This is another data set of the same source.
The conditions of data set [20]: human, microsomes. This is another data set of the same source.
Where [21] appears, read: Trypanosoma cruzi, Tulahuen C4 (LacZ).

T1 sequence (P08684 whole entry): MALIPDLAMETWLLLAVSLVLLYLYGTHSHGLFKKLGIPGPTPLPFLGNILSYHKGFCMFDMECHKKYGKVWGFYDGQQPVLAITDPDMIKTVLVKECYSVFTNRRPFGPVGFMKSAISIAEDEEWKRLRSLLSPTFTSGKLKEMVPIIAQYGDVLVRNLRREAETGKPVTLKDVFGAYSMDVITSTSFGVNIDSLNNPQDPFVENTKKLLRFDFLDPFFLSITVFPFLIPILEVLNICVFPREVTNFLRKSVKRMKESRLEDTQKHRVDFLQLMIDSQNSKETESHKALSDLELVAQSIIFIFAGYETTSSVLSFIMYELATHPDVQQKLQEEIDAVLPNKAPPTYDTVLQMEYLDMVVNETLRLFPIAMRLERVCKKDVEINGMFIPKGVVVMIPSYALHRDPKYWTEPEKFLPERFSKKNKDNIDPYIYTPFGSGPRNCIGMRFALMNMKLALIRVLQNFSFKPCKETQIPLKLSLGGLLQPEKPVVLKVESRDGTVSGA

Broadly, the IC50 is the concentration at which inhibition is half-maximal. As usually defined, the IC90 is the point of the concentration-response curve where the effect stands at 90%. One may read the chromatographic logD as lipophilicity estimated from chromatographic retention. Usually kinetic solubility stands for the concentration staying in solution when a stock, usually in DMSO, is diluted into the medium. For orientation: half-life means the time in which the quantity being followed falls by half. Broadly, the microsomal CLint is the capacity of the preparation to metabolise the compound, expressed as a volume cleared per time. Regarding `CC(C)(F)CN1CCC(N(c2ccc(C(F)(F)F)cc2)c2cccnc2)CC1`, the figures for the half-inhibitory concentration (IC50) (in the data set on Trypanosoma cruzi [1] (setting [21]); in [3]; in data set [4]) were 15 nM, 64900 nM and > 10000 nM, respectively. The compound further showed an IC90 with Trypanosoma cruzi [2] (setting [21]) of 25 nM. The chromatographic logD in [5] (pH 3, logD) worked out at 1.8; in data set [6] (pH 7.4, logD), 5.1. The figures for the kinetic solubility in data set [7] and in data set [8] were > 100 µg/mL and 3.1 µg/mL (≈ 7.84 µM), respectively. In the data set “in vitro [9]” (t (1 / 2)), this compound gave a half-life of 12.6 min. In the data set “in vitro [10]” (CLint), this compound displayed a microsomal CLint of 138 µL/min/mg.

With `FC(F)(F)c1ccc(N(c2cncnc2)C2CCN(c3ccc(C(F)(F)F)cn3)CC2)cc1`, the IC50 in the data set with Trypanosoma cruzi [1] was 5.4 nM and 5 nM; in the data set with Trypanosoma cruzi [1] (setting [21]) it was 3.65 nM; in data set [3], 93200 nM; in data set [4] it was > 10000 nM. For the same compound, the IC90 was 10 nM in the data set with Trypanosoma cruzi [2] and 9.15 nM with Trypanosoma cruzi [2] (setting [21]). This compound also registered a chromatographic logD in [11] of 5. The kinetic solubility in data set [12] is < 1.6 µg/mL. Further, the half-life in “in vitro [9]” is 56 min. In addition, the hepatic extraction ratio in the data set “in vitro [13]” amounted to 0.63. In “in vitro [10]”, this compound returned a microsomal CLint of 30.9 µL/min/mg.

For `O=C(c1ccc(F)cc1)N1CCC(N(c2ccc(C(F)(F)F)cc2)c2cccnc2)CC1`, the IC50 in the data set on Trypanosoma cruzi [1] is 7.83 nM; in the data set on Trypanosoma cruzi [1] (setting [21]) it was 15 nM; in data set [3], 54300 nM; with L6, 44400 nM; on Cytochrome P450 3A4 [15], 4400 nM. The 90% effect concentration (IC90) was 20.7 nM with Trypanosoma cruzi [2] and 28 nM in the data set with Trypanosoma cruzi [2] (setting [21]). Moreover, the chromatographic logD in data set [5] (pH 3) came out at 3.1; in data set [6] (pH 7.4), 4.1. For the same compound, the half-life in [14] is 16.6 min; in the data set “in vitro [9]”, 13.2 min. The microsomal CLint in [14] was determined as 105 µL/min/mg; in “in vitro [10]”, 131 µL/min/mg. Also, the hepatic extraction ratio in [14] is 0.77; in the data set “in vitro [13]”, 0.88. For the same compound, the results for the kinetic solubility in data set [7] and in data set [8] were > 100 µg/mL and 3.1 µg/mL (≈ 6.99 µM), respectively.

Regarding `FC(F)(F)c1ccc(N(c2cccnc2)C2CCN(C(c3ccccc3)C(F)(F)F)CC2)cc1` (stereo not given), the IC50 in the data set with Trypanosoma cruzi [1] is 5130 nM; in the data set on Trypanosoma cruzi [1] (setting [21]) it was 5130 nM; in data set [3], > 100000 nM; in [4] it was > 10000 nM; at Cytochrome P450 3A4 [16], > 20000 nM. In addition, the IC90 in the data set on Trypanosoma cruzi [2] and with Trypanosoma cruzi [2] (setting [21]) was 8140 nM in each case. Also, the chromatographic logD in data set [5] (pH 3, logD) is > 5.3; in data set [6] (pH 7.4, logD), > 5.3. Further, the results for the solubility (kinetic) in [7] and in data set [8] were > 100 µg/mL and 1.6 µg/mL (≈ 3.34 µM), respectively. The same compound showed a half-life in “in vitro [9]” (t (1 / 2)) of 62.6 min. The hepatic extraction ratio in the data set “in vitro [13]” (EH) worked out at 0.61. The same compound came in with a microsomal CLint in “in vitro [10]” (CLint) of 27.7 µL/min/mg.

For the compound `FC(F)(F)c1ccc(N(c2cncnc2)C2CCN(c3ccc(C(F)(F)F)nc3)CC2)cc1`, the IC50 was 15.9 nM with Trypanosoma cruzi [1], 10 nM with Trypanosoma cruzi [1] (setting [21]) and > 10000 nM in [4]. Further, the IC90 in the data set with Trypanosoma cruzi [2] was 21 nM and > 100 nM.

For the compound `CS(=O)(=O)N1CCC(N(c2ccc(Cl)cc2)c2cccnc2)CC1`, the 50% inhibitory concentration (IC50) in the data set on Trypanosoma cruzi [1] (setting [21]) came to 94 nM; against Cytochrome P450 3A4 [17], 2600 nM; in [3] it was 62500 nM. In the data set on Trypanosoma cruzi [2] (setting [21]), this compound had a 90% effect concentration (IC90) of 280 nM. In addition, the chromatographic logD in data set [5] (pH 3) was 1.6; in [6] (pH 7.4) it was 3.1. Besides, the figures for the half-life (in data set [14]; in “in vitro [9]”) were 27.7 min and 35.5 min, respectively. In addition, the results for the microsomal CLint (in [14]; in “in vitro [10]”) were 62.6 µL/min/mg and 48.8 µL/min/mg, respectively. For the same compound, the results for the hepatic extraction ratio (in data set [14]; in the data set “in vitro [13]”) were 0.67 and 0.73, respectively. Further, the solubility (kinetic) in data set [7] is > 100 µg/mL; in [8], 12.5 µg/mL (≈ 34.2 µM).

As for `O=C(C1CC1)N1CCC(N(c2ccc(Cl)cc2)c2cccnc2)CC1`, the IC50 was 5.82 nM in the data set on Trypanosoma cruzi [1] (setting [21]), 1500 nM against Cytochrome P450 3A4 [17] and 78200 nM in data set [3]. In addition, in the data set with Trypanosoma cruzi [2] (setting [21]), the IC90 turned out to be 13.4 nM. Also, the chromatographic logD was determined as 1.6 in data set [5] (pH 3) and 3.4 in data set [6] (pH 7.4). Further, the half-life in data set [14] worked out at 10.1 min; in the data set “in vitro [9]”, 24 min. The microsomal CLint turned out to be 171 µL/min/mg in data set [14] and 72.3 µL/min/mg in “in vitro [10]”. The values for the hepatic extraction ratio (in data set [14]; in “in vitro [13]”) were 0.85 and 0.8, respectively. For the same compound, the solubility (kinetic) was > 100 µg/mL in data set [7] and 12.5 µg/mL (≈ 35.1 µM) in [8].

As for `O=C(c1ccccc1)N1CCC(N(c2ccc(Cl)cc2)c2cccnc2)CC1`, the 50% inhibitory concentration (IC50) in the data set with Trypanosoma cruzi [1] (setting [21]) is 16 nM; at Cytochrome P450 3A4 [17], 1900 nM; in [3] it was 52500 nM. For the same compound, in the data set with Trypanosoma cruzi [2] (setting [21]), the IC90 was found to be 61.7 nM. The chromatographic logD in data set [5] (pH 3) was 2.1; in data set [6] (pH 7.4), 3.8. Moreover, the results for the half-life (in [14]; in the data set “in vitro [9]”) were 7.5 min and 12.5 min, respectively. Moreover, the microsomal CLint is 231 µL/min/mg in [14] and 139 µL/min/mg in the data set “in vitro [10]”. Further, the hepatic extraction ratio in data set [14] was determined as 0.88; in the data set “in vitro [13]”, 0.89. The solubility (kinetic) in data set [7] is > 100 µg/mL; in data set [8], 6.3 µg/mL (≈ 16.1 µM).

For orientation: % inhibition means the relative decrease from the control value, in per cent. On to `CC(C)(C)CC(=O)N1CCC(N(c2ccc(Cl)cc2)c2cccnc2)CC1`, for which the IC50 was found to be 0.595 nM with Trypanosoma cruzi [1] (setting [21]) and 800 nM against Cytochrome P450 3A4 [17]. The compound also yielded an IC90 in the data set with Trypanosoma cruzi [2] (setting [21]) of 1.93 nM. The “% inhibition” value in the data set on Leishmania donovani stood at 42.9%. The compound further gave a chromatographic logD in data set [5] (pH 3) of 2.4. The half-life in data set [14] was found to be 4.9 min; in the data set “in vitro [9]”, 9.9 min. Also, the microsomal CLint was determined as 357 µL/min/mg in data set [14] and 175 µL/min/mg in “in vitro [10]”. In addition, the hepatic extraction ratio was 0.92 in [14] and 0.91 in “in vitro [13]”. In data set [7], the kinetic solubility is > 100 µg/mL.

For the compound `Cc1noc(C)c1C(=O)N1CCC(N(c2ccc(C(F)(F)F)cc2)c2cccnc2)CC1`, the IC50 is 8 nM and 3.04 nM with Trypanosoma cruzi [1]; > 100000 nM in data set [3]; 78500 nM in the data set with L6; 2100 nM on Cytochrome P450 3A4 [15]. Further, the IC90 in the data set on Trypanosoma cruzi [2] was 47 nM and 8.38 nM. The chromatographic logD in data set [5] (pH 3) is 2.4; in data set [6] (pH 7.4), 3.5. Besides, the half-life stood at 21.8 min in data set [14] and 11.8 min in “in vitro [9]”. Further, the results for the microsomal CLint (in data set [14]; in “in vitro [10]”) were 79.3 µL/min/mg and 147 µL/min/mg, respectively. In addition, the hepatic extraction ratio stood at 0.72 in [14] and 0.89 in the data set “in vitro [13]”. The solubility (kinetic) is > 100 µg/mL in [7] and 12.5 µg/mL (≈ 28.1 µM) in [8].

`CC(O)C(C)N1CCC(N(c2ccc(C(F)(F)F)cc2)c2cccnc2)CC1` (stereo not given): the IC50 was 424 nM and 75 nM in the data set with Trypanosoma cruzi [1]; 64800 nM in data set [3]; 59600 nM with L6; > 20000 nM on Cytochrome P450 3A4 [16]. For the same compound, in the data set on Trypanosoma cruzi [2], the IC90 was 960 nM and > 100 nM. Besides, the chromatographic logD amounted to 1.3 in data set [5] (pH 3, logD) and 2.9 in data set [6] (pH 7.4, logD). For the same compound, the figures for the kinetic solubility in data set [7] and in data set [8] were > 100 µg/mL and 25 µg/mL (≈ 63.5 µM), respectively. For the same compound, the “t (1 / 2)” value in [18] is on record as 55.4 min. In addition, the EH in [19] is 0.57. The compound also returned a CLint in data set [20] of 31.3 µL/min/mg. In “in vitro [9]” (t (1 / 2)), this compound gave a half-life of 72.9 min. The hepatic extraction ratio in “in vitro [13]” (EH) worked out at 0.64. In addition, in “in vitro [10]” (CLint), the microsomal CLint was determined as 23.8 µL/min/mg.
